{"source": "patent US20250361240A1", "about": "“PYRANOPYRIDINE COMPOUND, PROCESS FOR PREPARING THE SAME, PHARMACEUTICAL COMPOSITION AND USE THEREOF” (Zhejiang Yangli Pharmaceutical Technology Co., Ltd., priority 2024, published 2025)", "key": {"aldosterone synthesis": {"tested_on": "aldosterone synthesis", "experiment": "Pharmacodynamic test in cynomolgus monkeys with ACTH stimulation: aldosterone in plasma", "assay_type": "in vivo, cynomolgus monkeys (Macaca fascicularis)", "description": "Adult cynomolgus monkeys (Macaca fascicularis) with suitable body weight and age were selected. 1 male and 1 female cynomolgus monkeys were used for experiment. The adaptation period was 1 week. On the day of the experiment, monkeys were individually housed in stainless steel mesh cages for testing.\nOral treatment and ACTH working solution (working solution diluted to the desired concentration in PBS sterile solution by ultrapure water filtration through a 0.22 μm filter using Tetracosactrin (HY-P0060, MCE)) were administered as follows: • T=0, 2 monkeys in each group were orally administered 0.5 mg/kg (compound was suspended in 5% aqueous sodium hydroxymethylcellulose solution as vehicle) in a fixed volume of 2 mL/kg; • T=+1 hour (i.e., 1 hour after administration), 14.5 μg/kg of the aforementioned ACTH working solution was injected intramuscularly.\nSampling test: Blood samples (collected in EDTA anticoagulant tubes) were collected before oral administration (Pre-dose) and 0.5 h, 1 h, 2 h, 4 h, 6 h and 12 h after administration for cortisol concentration measurement in plasma. The blood was centrifuged at 10000 rpm for 15 minutes at 4° C., followed by separation of the plasma and uniform storage at −80° C. for further analysis using an Roche biochemical analyzer to detect aldosterone and cortisol in plasma, and a portion of the plasma (0.5 h, 1 h, 2 h, 4 h, 6 h, and 12 h after administration, and an additional blood collection after 24 h) was taken simultaneously to determine the pharmacokinetic parameters by LC/MS.\nThe above experiment was repeated except that: T=0, two monkeys in each group were orally administered at a dose of 0.05 mg/kg (compound was suspended in 5% aqueous sodium hydroxymethylcellulose as vehicle) in a fixed volume of 2 mL/kg."}, "CYP2D6": {"biological_target": "CYP2D6 (Homo sapiens (Human), UniProt P10635)", "sequence (P10635 whole entry)": "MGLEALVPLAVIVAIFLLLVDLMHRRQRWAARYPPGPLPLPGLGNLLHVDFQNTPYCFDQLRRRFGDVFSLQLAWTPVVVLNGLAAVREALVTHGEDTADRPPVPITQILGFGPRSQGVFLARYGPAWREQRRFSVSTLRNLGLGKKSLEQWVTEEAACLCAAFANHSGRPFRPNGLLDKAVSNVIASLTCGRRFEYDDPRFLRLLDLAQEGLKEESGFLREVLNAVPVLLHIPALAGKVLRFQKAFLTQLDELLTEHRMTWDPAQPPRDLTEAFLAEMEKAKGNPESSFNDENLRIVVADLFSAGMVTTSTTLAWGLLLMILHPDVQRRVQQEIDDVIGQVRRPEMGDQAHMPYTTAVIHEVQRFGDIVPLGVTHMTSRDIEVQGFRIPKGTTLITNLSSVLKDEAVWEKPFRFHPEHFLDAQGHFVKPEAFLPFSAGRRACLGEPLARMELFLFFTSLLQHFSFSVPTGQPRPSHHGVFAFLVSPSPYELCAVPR", "experiment": "In vitro inhibitory activity against common CYP450 enzymes: CYP2D6", "assay_type": "in vitro ADME", "conditions": "microsomes, substrate Dextromethorphan", "experimental": "(§1) A working solution of the test compound was prepared in a solvent of dimethyl sulfoxide (DMSO) (starting at a final concentration of 50 μM, 3-fold dilution of 7 concentration points). The corresponding microsomes (CORNING, Cat No.452117) and the corresponding substrate solution were prepared (components were shown in Table 2). The working solution of the test compound and the corresponding microsomes were mixed with the corresponding substrate solution and the HLM working solution. The mixture was preheated in a 37.0° C. water bath for 10 min. NADPH cofactor (BONTAC, Cat No.BT04) was added. The resultant mixture was incubated for 10 min in a 37.0° C. water bath. The reaction was terminated by adding cold stop solution. [table] [table] The sample was centrifuged at 4000 rpm for 20 min to precipitate protein and the supernatant was transferred to HPLC water and shaken for 10 min."}, "CYP2C19": {"biological_target": "CYP2C19 (Homo sapiens (Human), UniProt P33261)", "sequence (P33261 whole entry)": "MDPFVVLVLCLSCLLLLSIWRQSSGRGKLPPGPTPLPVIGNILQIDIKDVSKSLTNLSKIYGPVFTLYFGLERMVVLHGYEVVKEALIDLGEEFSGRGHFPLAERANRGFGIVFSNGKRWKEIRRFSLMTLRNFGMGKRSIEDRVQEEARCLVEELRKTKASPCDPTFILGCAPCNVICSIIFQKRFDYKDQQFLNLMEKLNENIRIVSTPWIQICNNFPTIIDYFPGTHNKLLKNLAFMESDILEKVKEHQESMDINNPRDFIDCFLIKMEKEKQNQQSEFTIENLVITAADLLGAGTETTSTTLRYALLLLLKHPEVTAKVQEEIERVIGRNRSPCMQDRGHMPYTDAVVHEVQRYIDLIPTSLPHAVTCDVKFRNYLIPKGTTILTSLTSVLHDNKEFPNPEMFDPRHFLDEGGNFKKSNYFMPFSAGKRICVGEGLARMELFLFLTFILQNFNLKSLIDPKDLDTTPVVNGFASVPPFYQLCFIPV", "experiment": "In vitro inhibitory activity against common CYP450 enzymes: CYP2C19", "assay_type": "in vitro ADME", "conditions": "microsomes, substrate (S)-(+)-Mephenytoin", "experimental": "as §1"}, "CYP2C9": {"biological_target": "CYP2C9 (Homo sapiens (Human), UniProt P11712)", "sequence (P11712 whole entry)": "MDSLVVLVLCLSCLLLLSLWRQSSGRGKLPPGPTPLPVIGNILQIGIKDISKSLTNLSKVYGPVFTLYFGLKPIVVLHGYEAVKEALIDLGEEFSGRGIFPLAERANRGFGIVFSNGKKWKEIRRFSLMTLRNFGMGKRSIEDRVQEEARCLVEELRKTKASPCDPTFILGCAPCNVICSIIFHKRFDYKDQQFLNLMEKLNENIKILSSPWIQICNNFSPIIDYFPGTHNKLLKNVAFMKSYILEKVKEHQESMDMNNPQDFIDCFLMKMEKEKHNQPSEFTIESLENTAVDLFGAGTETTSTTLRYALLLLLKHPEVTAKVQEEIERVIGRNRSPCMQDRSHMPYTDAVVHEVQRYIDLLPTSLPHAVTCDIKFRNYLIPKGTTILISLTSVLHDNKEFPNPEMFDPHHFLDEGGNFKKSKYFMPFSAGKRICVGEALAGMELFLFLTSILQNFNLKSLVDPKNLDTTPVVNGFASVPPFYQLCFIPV", "experiment": "In vitro inhibitory activity against common CYP450 enzymes: CYP2C9", "assay_type": "in vitro ADME", "conditions": "microsomes, substrate Diclofenac", "experimental": "as §1"}}}
{"compound": "CCC(=O)N[C@@H]1CCCc2c(-c3ccc4c(c3)CCC(=O)N4C)cncc21", "note": "[Baxdrostat, reference compound]", "values": [{"measurement": "Aldosterone Concentration in Plasma", "setting": "aldosterone synthesis; 0.05 mg/kg oral, 0.5 h", "value": 846.13, "unit": "pg/mL"}, {"measurement": "Aldosterone Concentration in Plasma", "setting": "aldosterone synthesis; 0.05 mg/kg oral, 1 h (ACTH at +1 hour)", "value": 964.09, "unit": "pg/mL"}, {"measurement": "Aldosterone Concentration in Plasma", "setting": "aldosterone synthesis; 0.05 mg/kg oral, 2 h", "value": 568.08, "unit": "pg/mL"}, {"measurement": "Aldosterone Concentration in Plasma", "setting": "aldosterone synthesis; 0.05 mg/kg oral, 4 h", "value": 119.97, "unit": "pg/mL"}, {"measurement": "Aldosterone Concentration in Plasma", "setting": "aldosterone synthesis; 0.05 mg/kg oral, 6 h", "value": 101.14, "unit": "pg/mL"}, {"measurement": "Aldosterone Concentration in Plasma", "setting": "aldosterone synthesis; 0.05 mg/kg oral, 12 h", "value": 139.85, "unit": "pg/mL"}, {"measurement": "Aldosterone Concentration in Plasma", "setting": "aldosterone synthesis; 0.05 mg/kg oral, Pre-dose", "value": 292.42, "unit": "pg/mL"}, {"measurement": "Aldosterone Concentration in Plasma", "setting": "aldosterone synthesis; 0.5 mg/kg oral, 0.5 h", "value": 593.37, "unit": "pg/mL"}, {"measurement": "Aldosterone Concentration in Plasma", "setting": "aldosterone synthesis; 0.5 mg/kg oral, 1 h (ACTH at +1 hour)", "value": 361.74, "unit": "pg/mL"}, {"measurement": "Aldosterone Concentration in Plasma", "setting": "aldosterone synthesis; 0.5 mg/kg oral, 2 h", "value": 119.96, "unit": "pg/mL"}, {"measurement": "Aldosterone Concentration in Plasma", "setting": "aldosterone synthesis; 0.5 mg/kg oral, 4 h", "value": 83.97, "unit": "pg/mL"}, {"measurement": "Aldosterone Concentration in Plasma", "setting": "aldosterone synthesis; 0.5 mg/kg oral, 6 h", "value": 86.11, "unit": "pg/mL"}, {"measurement": "Aldosterone Concentration in Plasma", "setting": "aldosterone synthesis; 0.5 mg/kg oral, 12 h", "value": 92.61, "unit": "pg/mL"}, {"measurement": "Aldosterone Concentration in Plasma", "setting": "aldosterone synthesis; 0.5 mg/kg oral, Pre-dose", "value": 126.77, "unit": "pg/mL"}, {"measurement": "IC50", "setting": "CYP2D6", "value": "> 50", "unit": "µM"}, {"measurement": "IC50", "setting": "CYP2C19", "value": 6.52, "unit": "µM"}, {"measurement": "IC50", "setting": "CYP2C9", "value": 35.2, "unit": "µM"}]}
